This note sets out measurements from ChEMBL document CHEMBL4000154, “Pyristriatins A and B: Pyridino-Cyathane Antibiotics from the Basidiomycete Cyathus cf. striatus” (J Nat Prod, 2016).

By IC50 is commonly meant the concentration that inhibits the measured activity by half.

The test system of one assay is Bacillus subtilis. Put plainly: Antibacterial activity against Bacillus subtilis DSM 10 after 24 to 48 hrs by serial dilution method. Format: functional.
Assay [1] deals with Chromobacterium violaceum. Put plainly: Antibacterial activity against Chromobacterium violaceum DSM 30191 after 24 to 48 hrs by serial dilution method. Format: functional.
In another assay the test system is Micrococcus luteus. The experiment in a line: Antibacterial activity against Micrococcus luteus DSM 1790 after 24 to 48 hrs by serial dilution method. In kind it is functional.
In a further assay the test system is Pseudomonas aeruginosa. Put plainly: Antibacterial activity against Pseudomonas aeruginosa PA14 after 24 to 48 hrs by serial dilution method. Format: functional.
For the next assay, the system named is Staphylococcus aureus. The experiment in a line: Antibacterial activity against Staphylococcus aureus DSM 346 after 24 to 48 hrs by serial dilution method. Format: functional.
Another assay relates to Candida albicans. Put plainly: Antifungal activity against Candida albicans DSM 1665 after 24 to 48 hrs by serial dilution method. Format: functional.
For the next assay, the system named is Mucor plumbeus. The experiment in a line: Antifungal activity against Mucor plumbeus MUCL 49355 after 24 to 48 hrs by serial dilution method. Format: functional.
A further assay has as its system Wickerhamomyces anomalus. The experiment in a line: Antifungal activity against Pichia anomala DSM 6766 after 24 to 48 hrs by serial dilution method. Format: functional.
A further assay deals with Rhodotorula glutinis. The experiment in a line: Antifungal activity against Rhodotorula glutinis DSM 10134 after 24 to 48 hrs by serial dilution method. Format: functional.
Assay [2] deals with Schizosaccharomyces pombe. The experiment in a line: Antifungal activity against Schizosaccharomyces pombe DSM 70572 after 24 to 48 hrs by serial dilution method. In kind it is functional.
A further assay concerns HUVEC. The experiment in a line: Cytotoxicity against HUVEC after 5 days by MTT assay. The settings on record: Homo sapiens, 120 h. In kind it is cell-based.
The test system of another assay is KB 3-1. Put plainly: Cytotoxicity against human KB 3.1 cells after 5 days by MTT assay. As to conditions: KB 3-1, 120 h. In kind it is functional, cell-based. A general note: Tetrazolium assays rely on reduction of a dye to a coloured formazan, in cell work by metabolically active cells.
For another assay, the system named is L929. Put plainly: Cytotoxicity against mouse L929 cells after 5 days by MTT assay. Format: cell-based. As to conditions: L929, 120 h.
The subject of assay [3] is Escherichia coli. The settings on record: DSM 498.
Description: (§1) Antibacterial activity against Escherichia coli DSM 498 after 24 to 48 hrs by serial dilution method
Assay [4] deals with Escherichia coli. Put plainly: microbe, parasite or virus in culture. As to conditions: DSM 498.
Description: as §1

Converted amounts (≈) assume the structure as drawn. The source made the active and inactive calls. No cut-off for these calls is given here.

Regarding `CO[C@@H]1O[C@H]2c3c(cnc(C(=O)CO)c31)C[C@H](O)[C@@H]1C3=C(C(C)C)CC[C@]3(C)CC[C@@]21C`, the MIC was 9.4 µg/mL (≈ 21.3 µM) against Bacillus subtilis; 8.3 µg/mL (≈ 18.8 µM) in the assay on Micrococcus luteus; 8.3 µg/mL (≈ 18.8 µM) against Staphylococcus aureus; 150 µg/mL (≈ 340 µM) against Mucor plumbeus; 8.3 µg/mL (≈ 18.8 µM) against Rhodotorula glutinis; 8.3 µg/mL (≈ 18.8 µM) in assay [2]. The MIC entry (in assay [1]; in the assay on Pseudomonas aeruginosa; in the assay with Candida albicans; in the assay with Wickerhamomyces anomalus; in the assay with Escherichia coli [3]) was “inactive” throughout. Further, the IC50 with HUVEC was 6.3 µM; with KB 3-1, 12.7 µM; with L929, 15.4 µM.

On to `C/C(=C\c1csc(C)n1)[C@@H]1C[C@@H]2O[C@@H]2CCC[C@H](C)[C@H](O)[C@@H](C)C(=O)C(C)(C)[C@@H](O)CC(=O)O1` [EPOTHILONE A], for which the IC50 in the assay on L929 was determined as 0.0038 µM. This lies in the single-digit nanomolar range.

Take `CN(C)[C@@H]1C(O)=C(C(N)=O)C(=O)[C@@]2(O)C(O)=C3C(=O)c4c(O)cccc4[C@@](C)(O)[C@H]3[C@H](O)[C@@H]12` [OXYTETRACYCLINE]: the results for the MIC (in assay [1]; in the assay on Micrococcus luteus; in the assay on Staphylococcus aureus) were 2.1 µg/mL (≈ 4.56 µM), 8.3 µg/mL (≈ 18 µM) and 1 µg/mL (≈ 2.17 µM), respectively.

For `CO[C@H]1O[C@H]2c3c(cnc(C(=O)CO)c31)C[C@H](O)[C@@H]1C3=C(C(C)C)CC[C@]3(C)CC[C@@]21C`, the MIC was found to be 9.4 µg/mL (≈ 21.3 µM) in the assay on Bacillus subtilis; 16.7 µg/mL (≈ 37.8 µM) against Micrococcus luteus; 16.7 µg/mL (≈ 37.8 µM) against Staphylococcus aureus; 150 µg/mL (≈ 340 µM) in the assay with Mucor plumbeus; 16.7 µg/mL (≈ 37.8 µM) against Rhodotorula glutinis; 16.7 µg/mL (≈ 37.8 µM) in [2]. In addition, the MIC result (in assay [1]; with Pseudomonas aeruginosa; in the assay on Candida albicans; with Wickerhamomyces anomalus; in the assay with Escherichia coli [3]) was “inactive” each time. Moreover, the IC50 with HUVEC was 5.9 µM; in the assay with KB 3-1, 14.7 µM; in the assay with L929, 16.3 µM.

Consider `C/C(=C\c1csc(C)n1)[C@@H]1C[C@@H]2O[C@]2(C)CCC[C@H](C)[C@H](O)[C@@H](C)C(=O)C(C)(C)[C@@H](O)CC(=O)O1` [PATUPILONE], for which the IC50 in the assay with HUVEC worked out at 0.00055 µM; in the assay on KB 3-1, 0.00022 µM.

Turning to NYSTATIN, the MIC against Candida albicans amounted to 16.7 µg/mL; with Mucor plumbeus, 9.4 µg/mL; with Wickerhamomyces anomalus it was 16.7 µg/mL; with Rhodotorula glutinis, 66.7 µg/mL; in assay [2], 66.7 µg/mL.

For `O=C(O)c1cn(C2CC2)c2cc(N3CCNCC3)c(F)cc2c1=O` [CIPROFLOXACIN], the MIC in the assay with Bacillus subtilis and in the assay on Escherichia coli [4] was at most 2.3 µg/mL in each case.
